Patent US20070026065A1, “Solid, modified-release pharmaceutical dosage forms which can be administered orally” (Bayer HealthCare AG, priority 2004, published 2007)
≈ marks a conversion by molar mass, not a printed value.

Legend:
Solubility in water = assay type: physicochemical; details: 25° C.
Text: (§1) Accordingly, for the desired once a day administration, specific pharmaceutical formulations with modified release of the active ingredient (I), taking account of its physicochemical and biological properties, are required.

Plasma half-life = assay type: in vivo
Text: as §1

solubility (Solubility in water): ~7 µg/mL (≈ 16.1 µM)
half-life (Plasma half-life): ~7 h
SMILES: O=C(NC[C@H]1CN(c2ccc(N3CCOCC3=O)cc2)C(=O)O1)c1ccc(Cl)s1 [active ingredient (I), 5-Chloro-N-({(5S)-2-oxo-3-[4-(3-oxo-4-morpholinyl)phenyl]-1,3-oxazolidin-5-yl}methyl)-2-thiophenecarboxamide]
